Test results: article PMC6576746, “Rational discovery of dual-indication multi-target PDE/Kinase inhibitor for precision anti-cancer therapy using structural systems pharmacology” (PLoS Computational Biology, 2019)

Legend:
MAP2K5 = target: T1, MAP2K5 (Homo sapiens, UniProt Q13163); assay: KinomeScan competition binding assay; settings: 10 μM levosimendan
T1 construct: DiscoverX KinomeScan panel kinase

ACVRL1 = ACVRL1 (Homo sapiens, UniProt P37023); assay: biochemical; set-up: DiscoverX KinomeScan competition binding assay across human kinases; per cent of control at 10 and 100 uM; settings: competition binding, % of control
Procedure, shortened: (§1)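 Binding is expressed as %control, normalised between positive and negative control signals. The compound (levosimendan) was tested at 10 μM and 100 μM in the DiscoverX KinomeScan competition binding format against human kinases.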

ALK(L1196M) = ALK(L1196M) (Homo sapiens, UniProt Q9UM73, L1196M); assay: biochemical; set-up: DiscoverX KinomeScan competition binding assay across human kinases; per cent of control at 10 and 100 uM; settings: competition binding, % of control; read-out: Percent Control (100 uM Levosimendan)
Procedure, shortened: as §1

CAMKK2 = CAMKK2 (Homo sapiens, UniProt Q96RR4); assay: biochemical; set-up: DiscoverX KinomeScan competition binding assay across human kinases; per cent of control at 10 and 100 uM; settings: competition binding, % of control; read-out: Percent Control (100 uM Levosimendan)
Procedure, shortened: as §1

CDKL3 = CDKL3 (Homo sapiens, UniProt Q8IVW4); assay: biochemical; set-up: DiscoverX KinomeScan competition binding assay across human kinases; per cent of control at 10 and 100 uM; settings: competition binding, % of control; read-out: Percent Control (100 uM Levosimendan)
Procedure, shortened: as §1

CDKL5 = CDKL5 (Homo sapiens, UniProt O76039); assay: biochemical; set-up: DiscoverX KinomeScan competition binding assay across human kinases; per cent of control at 10 and 100 uM; settings: competition binding, % of control; read-out: Percent Control (100 uM Levosimendan)
Procedure, shortened: as §1

CHEK2 = CHEK2 (Homo sapiens, UniProt O96017); assay: biochemical; set-up: DiscoverX KinomeScan competition binding assay across human kinases; per cent of control at 10 and 100 uM; settings: competition binding, % of control
Procedure, shortened: as §1

DDR1 = DDR1 (Homo sapiens, UniProt Q08345); assay: biochemical; set-up: DiscoverX KinomeScan competition binding assay across human kinases; per cent of control at 10 and 100 uM; settings: competition binding, % of control; read-out: Percent Control (100 uM Levosimendan)
Procedure, shortened: as §1

FGFR2 = FGFR2 (Homo sapiens, UniProt P21802); assay: biochemical; set-up: DiscoverX KinomeScan competition binding assay across human kinases; per cent of control at 10 and 100 uM; settings: competition binding, % of control; read-out: Percent Control (100 uM Levosimendan)
Procedure, shortened: as §1

HCK = HCK (Homo sapiens, UniProt P08631); assay: biochemical; set-up: DiscoverX KinomeScan competition binding assay across human kinases; per cent of control at 10 and 100 uM; settings: competition binding, % of control
Procedure, shortened: as §1

KIT = KIT (Homo sapiens, UniProt P10721); assay: biochemical; set-up: DiscoverX KinomeScan competition binding assay across human kinases; per cent of control at 10 and 100 uM; settings: competition binding, % of control
Procedure, shortened: as §1

PCTK1 = target: T2, PCTK1 (Homo sapiens, UniProt Q00536); assay: biochemical; set-up: DiscoverX KinomeScan competition binding assay across human kinases; per cent of control at 10 and 100 uM; settings: competition binding, % of control; read-out: Percent Control (100 uM Levosimendan)
T2 construct: gene CDK16
Procedure, shortened: as §1

RIPK2 = RIPK2 (Homo sapiens, UniProt O43353); assay: biochemical; set-up: DiscoverX KinomeScan competition binding assay across human kinases; per cent of control at 10 and 100 uM; settings: competition binding, % of control; read-out: Percent Control (100 uM Levosimendan)
Procedure, shortened: as §1

YANK3 = target: T3, YANK3 (Homo sapiens, UniProt Q86UX6); assay: biochemical; set-up: DiscoverX KinomeScan competition binding assay across human kinases; per cent of control at 10 and 100 uM; settings: competition binding, % of control; read-out: Percent Control (100 uM Levosimendan)
T3 construct: gene STK32C
Procedure, shortened: as §1

PIP5K1A = PIP5K1A (Homo sapiens, UniProt Q99755); assay: KinomeScan competition binding assay; set-up: DiscoverX KinomeScan panel kinase; settings: 10 μM levosimendan
[1] = read-out: Percent Control (10 uM Levosimendan)
[2] = read-out: Percent Control (100 uM Levosimendan)

Sequence of ACVRL1 (P37023 whole entry): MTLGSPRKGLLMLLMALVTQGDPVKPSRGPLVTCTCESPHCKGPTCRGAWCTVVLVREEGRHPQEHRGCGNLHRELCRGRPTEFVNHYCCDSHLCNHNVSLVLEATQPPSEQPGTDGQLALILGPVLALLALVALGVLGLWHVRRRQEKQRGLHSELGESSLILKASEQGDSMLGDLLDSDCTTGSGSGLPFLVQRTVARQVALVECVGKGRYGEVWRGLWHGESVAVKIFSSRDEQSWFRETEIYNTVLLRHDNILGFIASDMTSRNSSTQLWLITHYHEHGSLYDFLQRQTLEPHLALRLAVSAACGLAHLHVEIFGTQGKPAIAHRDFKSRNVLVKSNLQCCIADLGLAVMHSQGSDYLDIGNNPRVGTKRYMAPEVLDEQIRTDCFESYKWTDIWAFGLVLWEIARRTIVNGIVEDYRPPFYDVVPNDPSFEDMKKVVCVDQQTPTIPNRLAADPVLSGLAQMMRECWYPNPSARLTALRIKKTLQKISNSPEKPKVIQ
Sequence of CHEK2 (O96017 whole entry): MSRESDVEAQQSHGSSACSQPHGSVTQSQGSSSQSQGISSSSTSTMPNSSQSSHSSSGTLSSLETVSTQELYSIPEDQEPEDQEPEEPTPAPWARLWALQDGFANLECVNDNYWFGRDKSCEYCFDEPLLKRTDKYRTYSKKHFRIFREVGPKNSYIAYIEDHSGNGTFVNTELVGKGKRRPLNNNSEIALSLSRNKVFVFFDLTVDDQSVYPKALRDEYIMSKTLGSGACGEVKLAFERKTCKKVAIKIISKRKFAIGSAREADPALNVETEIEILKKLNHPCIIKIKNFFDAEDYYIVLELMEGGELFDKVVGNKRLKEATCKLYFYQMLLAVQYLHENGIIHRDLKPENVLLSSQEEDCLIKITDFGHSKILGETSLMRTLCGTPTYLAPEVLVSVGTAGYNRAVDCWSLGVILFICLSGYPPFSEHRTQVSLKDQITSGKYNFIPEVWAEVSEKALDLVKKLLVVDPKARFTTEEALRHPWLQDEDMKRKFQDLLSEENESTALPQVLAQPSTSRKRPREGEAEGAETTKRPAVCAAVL
Sequence of HCK (P08631 whole entry): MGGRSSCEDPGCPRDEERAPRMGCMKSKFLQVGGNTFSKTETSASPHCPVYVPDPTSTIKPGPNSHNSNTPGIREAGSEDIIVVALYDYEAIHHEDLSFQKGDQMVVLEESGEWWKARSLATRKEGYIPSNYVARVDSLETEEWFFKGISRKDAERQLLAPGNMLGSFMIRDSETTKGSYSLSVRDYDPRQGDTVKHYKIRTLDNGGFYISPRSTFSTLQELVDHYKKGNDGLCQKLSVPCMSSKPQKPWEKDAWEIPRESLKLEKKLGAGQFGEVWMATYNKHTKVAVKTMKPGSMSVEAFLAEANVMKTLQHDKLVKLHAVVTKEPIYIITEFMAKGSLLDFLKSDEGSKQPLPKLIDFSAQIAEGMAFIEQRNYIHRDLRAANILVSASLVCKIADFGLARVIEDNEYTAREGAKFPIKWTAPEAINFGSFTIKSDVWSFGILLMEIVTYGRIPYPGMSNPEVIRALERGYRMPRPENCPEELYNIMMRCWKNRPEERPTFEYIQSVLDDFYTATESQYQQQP
Sequence of KIT (P10721 whole entry): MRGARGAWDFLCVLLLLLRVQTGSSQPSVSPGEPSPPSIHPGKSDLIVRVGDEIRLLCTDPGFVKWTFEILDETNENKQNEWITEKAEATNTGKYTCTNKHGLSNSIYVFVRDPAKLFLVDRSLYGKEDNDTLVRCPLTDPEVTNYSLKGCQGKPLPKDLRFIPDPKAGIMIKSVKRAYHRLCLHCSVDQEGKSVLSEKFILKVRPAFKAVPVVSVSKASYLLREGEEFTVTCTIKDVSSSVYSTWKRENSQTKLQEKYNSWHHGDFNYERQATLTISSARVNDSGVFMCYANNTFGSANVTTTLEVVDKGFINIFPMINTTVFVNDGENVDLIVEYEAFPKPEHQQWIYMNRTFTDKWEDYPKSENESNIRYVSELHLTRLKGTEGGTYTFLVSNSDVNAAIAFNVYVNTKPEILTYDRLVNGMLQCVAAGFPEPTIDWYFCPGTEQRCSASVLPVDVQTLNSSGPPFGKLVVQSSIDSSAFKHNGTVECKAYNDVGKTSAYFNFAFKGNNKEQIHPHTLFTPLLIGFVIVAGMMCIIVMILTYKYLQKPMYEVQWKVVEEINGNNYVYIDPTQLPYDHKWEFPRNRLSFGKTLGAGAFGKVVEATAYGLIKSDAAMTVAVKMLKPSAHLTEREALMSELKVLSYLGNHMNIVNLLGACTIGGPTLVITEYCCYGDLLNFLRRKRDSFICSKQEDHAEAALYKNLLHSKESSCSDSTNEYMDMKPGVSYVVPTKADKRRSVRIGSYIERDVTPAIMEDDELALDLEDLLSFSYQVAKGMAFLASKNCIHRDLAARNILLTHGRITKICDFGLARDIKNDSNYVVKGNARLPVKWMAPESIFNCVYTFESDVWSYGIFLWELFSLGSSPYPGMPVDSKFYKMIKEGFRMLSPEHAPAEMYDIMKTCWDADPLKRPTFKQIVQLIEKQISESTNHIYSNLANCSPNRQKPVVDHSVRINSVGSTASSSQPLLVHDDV
T3 sequence (Q86UX6 whole entry): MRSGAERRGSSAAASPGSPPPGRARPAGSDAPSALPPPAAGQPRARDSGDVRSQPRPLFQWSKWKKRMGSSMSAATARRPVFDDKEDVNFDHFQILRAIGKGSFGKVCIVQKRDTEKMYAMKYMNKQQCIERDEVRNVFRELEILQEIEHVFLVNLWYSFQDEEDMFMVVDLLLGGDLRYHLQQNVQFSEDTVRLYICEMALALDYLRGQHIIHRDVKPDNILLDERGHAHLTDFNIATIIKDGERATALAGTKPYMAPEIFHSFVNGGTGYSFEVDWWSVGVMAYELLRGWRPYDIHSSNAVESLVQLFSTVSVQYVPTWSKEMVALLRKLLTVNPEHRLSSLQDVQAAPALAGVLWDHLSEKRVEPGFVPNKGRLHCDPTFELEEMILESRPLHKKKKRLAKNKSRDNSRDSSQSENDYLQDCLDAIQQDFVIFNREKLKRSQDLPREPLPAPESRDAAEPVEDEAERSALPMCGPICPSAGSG
Sequence of RIPK2 (O43353 whole entry): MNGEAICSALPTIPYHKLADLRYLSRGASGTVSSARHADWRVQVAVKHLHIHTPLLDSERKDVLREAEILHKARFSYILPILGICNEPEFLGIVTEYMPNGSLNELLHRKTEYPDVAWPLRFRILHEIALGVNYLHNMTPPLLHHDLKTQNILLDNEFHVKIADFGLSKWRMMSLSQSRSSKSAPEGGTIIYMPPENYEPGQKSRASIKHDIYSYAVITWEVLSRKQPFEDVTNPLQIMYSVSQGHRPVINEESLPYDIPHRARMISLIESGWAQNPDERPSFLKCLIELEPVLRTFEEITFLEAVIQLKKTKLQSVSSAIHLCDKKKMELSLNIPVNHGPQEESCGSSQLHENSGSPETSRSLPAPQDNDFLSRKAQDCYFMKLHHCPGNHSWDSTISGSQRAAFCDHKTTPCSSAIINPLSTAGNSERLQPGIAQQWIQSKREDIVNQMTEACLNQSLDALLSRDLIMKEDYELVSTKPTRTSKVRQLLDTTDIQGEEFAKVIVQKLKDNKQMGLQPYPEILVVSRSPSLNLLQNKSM
Sequence of DDR1 (Q08345 whole entry): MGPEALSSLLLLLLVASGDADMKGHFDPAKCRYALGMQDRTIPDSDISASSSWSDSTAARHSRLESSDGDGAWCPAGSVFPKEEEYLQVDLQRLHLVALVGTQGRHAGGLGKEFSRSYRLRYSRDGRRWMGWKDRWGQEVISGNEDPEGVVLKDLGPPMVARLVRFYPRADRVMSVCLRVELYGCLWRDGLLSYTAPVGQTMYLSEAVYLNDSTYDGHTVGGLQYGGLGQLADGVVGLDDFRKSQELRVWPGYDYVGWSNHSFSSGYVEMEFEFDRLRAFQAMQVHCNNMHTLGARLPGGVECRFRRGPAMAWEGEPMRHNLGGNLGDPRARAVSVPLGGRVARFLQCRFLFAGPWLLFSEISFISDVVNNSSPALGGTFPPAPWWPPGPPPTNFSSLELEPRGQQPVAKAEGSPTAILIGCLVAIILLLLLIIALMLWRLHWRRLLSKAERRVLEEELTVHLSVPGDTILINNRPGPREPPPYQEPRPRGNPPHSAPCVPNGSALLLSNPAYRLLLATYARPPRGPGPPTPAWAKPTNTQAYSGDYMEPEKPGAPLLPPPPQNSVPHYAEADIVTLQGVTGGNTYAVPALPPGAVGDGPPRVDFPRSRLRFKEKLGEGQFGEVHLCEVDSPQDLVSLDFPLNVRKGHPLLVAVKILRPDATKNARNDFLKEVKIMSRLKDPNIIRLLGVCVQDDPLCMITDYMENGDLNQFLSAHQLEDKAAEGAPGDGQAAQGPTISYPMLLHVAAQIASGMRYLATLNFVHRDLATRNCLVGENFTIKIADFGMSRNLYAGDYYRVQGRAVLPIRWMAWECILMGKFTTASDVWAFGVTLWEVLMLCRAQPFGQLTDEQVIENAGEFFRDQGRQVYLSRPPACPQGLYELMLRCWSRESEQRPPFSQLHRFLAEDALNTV
T1 sequence (Q13163 whole entry): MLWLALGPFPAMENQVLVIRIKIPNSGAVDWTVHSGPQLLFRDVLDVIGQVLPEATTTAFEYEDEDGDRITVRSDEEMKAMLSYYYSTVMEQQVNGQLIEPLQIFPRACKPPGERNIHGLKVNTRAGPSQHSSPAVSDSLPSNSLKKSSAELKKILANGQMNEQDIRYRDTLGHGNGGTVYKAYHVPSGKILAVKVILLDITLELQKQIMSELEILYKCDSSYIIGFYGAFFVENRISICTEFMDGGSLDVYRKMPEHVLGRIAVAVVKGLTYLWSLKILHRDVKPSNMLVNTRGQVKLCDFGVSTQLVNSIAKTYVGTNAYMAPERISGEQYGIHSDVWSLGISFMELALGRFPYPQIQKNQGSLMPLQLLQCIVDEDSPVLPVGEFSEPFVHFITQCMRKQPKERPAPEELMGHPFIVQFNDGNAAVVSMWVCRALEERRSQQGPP

- percentage control at 10 μM (MAP2K5): < 30.0%
- remaining binding at 10 µM (ACVRL1; [1]): 71%
- remaining binding at 100 µM (ACVRL1; [2]): 30%
- remaining binding at 100 µM (ALK(L1196M)): 72%
- remaining binding at 100 µM (CAMKK2): 54%
- remaining binding at 100 µM (CDKL3): 100%
- remaining binding at 100 µM (CDKL5): 94%
- remaining binding at 10 µM (CHEK2; [1]): 41%
- remaining binding at 100 µM (CHEK2; [2]): 0.65%
- remaining binding at 100 µM (DDR1): 84%
- remaining binding at 100 µM (FGFR2): 61%
- remaining binding at 10 µM (HCK; [1]): 98%
- remaining binding at 100 µM (HCK; [2]): 24%
- remaining binding at 10 µM (KIT; [1]): 26%
- remaining binding at 100 µM (KIT; [2]): 3.5%
- remaining binding at 100 µM (PCTK1): 88%
- remaining binding at 100 µM (RIPK2): 91%
- remaining binding at 100 µM (YANK3): 73%
- percentage control at 10 μM (PIP5K1A): < 30.0%
Compound: C[C@@H]1CC(=O)NN=C1c1ccc(NN=C(C#N)C#N)cc1 [levosimendan]
